Columns and labels:
[1] = target: T1, citrate synthase (TpCSH6) (Thermoplasma acidophilum, UniProt P21553); assay: fluorescence titration of the TpCSH6–OAA complex (CitMX formation); also competitive inhibition versus AcCoA, Ki =[…]; assay type: binding
T1 construct: gene gltA; full-length TpCS (lacking N-terminal Met) with C-terminal His6 tag (TpCSH6)
T1 sequence (P21553 2-385): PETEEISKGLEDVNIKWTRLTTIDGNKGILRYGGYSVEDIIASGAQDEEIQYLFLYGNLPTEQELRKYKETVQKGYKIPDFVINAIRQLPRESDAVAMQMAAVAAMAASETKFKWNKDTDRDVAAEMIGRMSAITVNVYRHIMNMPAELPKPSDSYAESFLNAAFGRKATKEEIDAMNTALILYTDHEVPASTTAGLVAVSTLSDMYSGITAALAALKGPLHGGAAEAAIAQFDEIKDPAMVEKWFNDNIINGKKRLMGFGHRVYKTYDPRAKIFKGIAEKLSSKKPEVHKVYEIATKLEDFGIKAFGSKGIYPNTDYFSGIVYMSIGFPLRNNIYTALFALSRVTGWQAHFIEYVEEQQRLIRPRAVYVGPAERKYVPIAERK

[2] = target: T1, citrate synthase (TpCSH6); assay: fluorescence titration (Trp348 quenching); assay type: binding
[3] = target: T2, citrate synthase (TpCSH6-H222Q) (Thermoplasma acidophilum, UniProt P21553, H223Q); assay: fluorescence titration (Trp348 quenching); assay type: binding
T2 construct: gene gltA; full-length TpCS with C-terminal His6 tag, H222Q mutant
T2 sequence (P21553 2-385 H223Q): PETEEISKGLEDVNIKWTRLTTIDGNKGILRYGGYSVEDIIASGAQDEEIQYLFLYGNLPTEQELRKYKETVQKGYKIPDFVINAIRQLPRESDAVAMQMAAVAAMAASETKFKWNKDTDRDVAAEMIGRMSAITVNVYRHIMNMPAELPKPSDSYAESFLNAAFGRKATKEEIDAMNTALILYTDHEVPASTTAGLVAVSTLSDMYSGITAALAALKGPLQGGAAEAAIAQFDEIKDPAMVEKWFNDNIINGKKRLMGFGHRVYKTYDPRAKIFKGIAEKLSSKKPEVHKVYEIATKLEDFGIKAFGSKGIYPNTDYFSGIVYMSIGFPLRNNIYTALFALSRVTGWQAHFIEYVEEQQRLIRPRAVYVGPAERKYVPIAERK

purified protein = substrate: CC(=O)SCCNC(=O)CCNC(=O)[C@H](O)C(C)(C)COP(=O)(O)OP(=O)(O)OC[C@H]1O[C@@H](n2cnc3c(N)ncnc32)[C@H](O)[C@@H]1OP(=O)(O)O; assay: purified protein; settings: oxaloacetate (co-substrate) AcCoA binding site (His222, Asp317)

**Q.** `CC(=O)CCCNC(=O)CCNC(=O)[C@H](O)C(C)(C)COP(=O)(O)OP(=O)(O)OC[C@H]1O[C@@H](n2cnc3c(N)ncnc32)[C@H](O)[C@@H]1OP(=O)(O)O` [AcMX, dethiaacetyl-CoA] was tested. Which Kd [1] did it give?
**A.** Its Kd is 1500 nM.

**Q.** With `O=C(O)CC(=O)C(=O)O` [OAA, oxaloacetate] as the molecule, how does the Kd [2] read?
**A.** Its Kd is 760 nM.

**Q.** What about the Kd [3] of the same molecule?
**A.** Its Kd is 19000 nM.

B1: citrate synthase (TpCSH6) (Thermoplasma acidophilum DSM 1728) (protein)
chain: T1 sequence (P21553 2-385)
**Q.** How did the Km (purified protein) turn out when B1 was run?
**A.** Its Km is 3.0 µM.

Reference: publication PMC4601594, “An active site–tail interaction in the structure of hexahistidine-tagged Thermoplasma acidophilum citrate synthase” (Acta Crystallographica. Section F, Structural Biology …, 2015)
